Legend:
[1] = target: T1, Hedgehog acyltransferase (Hhat) (Homo sapiens, UniProt Q5VTY9); assay: YnPal palmitoylation tagging in HEK-293 Shh+ cells, spike-in SILAC quantitative proteomics (Western blot TC50 […]); type: cell-based
[2] = target: T1, Hedgehog acyltransferase (Hhat); assay: YnPal palmitoylation profiling in cells by quantitative proteomics; type: cell-based

T1 sequence (Q5VTY9 whole entry): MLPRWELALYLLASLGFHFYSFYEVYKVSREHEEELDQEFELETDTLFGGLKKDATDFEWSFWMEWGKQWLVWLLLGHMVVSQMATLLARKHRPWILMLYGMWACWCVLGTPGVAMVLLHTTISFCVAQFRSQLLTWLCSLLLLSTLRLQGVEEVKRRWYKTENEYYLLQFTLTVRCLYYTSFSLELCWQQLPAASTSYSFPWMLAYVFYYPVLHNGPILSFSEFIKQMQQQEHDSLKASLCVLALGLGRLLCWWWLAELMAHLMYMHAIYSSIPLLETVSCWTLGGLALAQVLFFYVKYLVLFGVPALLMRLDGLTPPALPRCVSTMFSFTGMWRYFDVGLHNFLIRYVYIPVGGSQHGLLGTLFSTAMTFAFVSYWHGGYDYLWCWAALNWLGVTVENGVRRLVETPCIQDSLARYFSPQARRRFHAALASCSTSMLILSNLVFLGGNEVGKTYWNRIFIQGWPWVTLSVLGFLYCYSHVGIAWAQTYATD

CCC(C)CNCC(=O)N1CCc2sccc2C1c1cccc(C)n1 (racemic) [RUSKI-201]
IC50 [1]: 730 ± 90 nM

C=CCNCC(=O)N1CCc2sccc2C1COc1ccc(Cl)cc1 (centres unmarked) [RUSKI-41]
YnPal palmitoylation profiling in cells by quantitative proteomics [2]: RUSKI-41 also inhibited only Hh palmitoylation (Supporting Information Figure S6, Table S2)
